This is an account of results in PMC8424369 (Journal of Pharmaceutical Analysis, 2020).

Data set [1] can be described thus: Stability of QC samples in transport medium. It counts as physicochemical. Conditions: HBSS, n=3.
The subject of the next data set is Caco-2 cell monolayer. In words: Bidirectional transport experiments on Caco-2 cell monolayer model. It counts as in vitro ADME, human. As to conditions: for Papp(AP-BL): AP to BL; for Papp(AP-BL) / Recovery (%) BL-AP / Papp(BL-AP) / ER (efflux ratio, Papp(BL-AP)/Papp(AP-BL)): donor 10 μM, 3 h; for Papp(AP-BL) / Recovery (%) BL-AP / Papp(BL-AP): 37 °C; for Papp(AP-BL) / Papp(BL-AP): single time point, mean ± S.D. (n=3); for Recovery (%) BL-AP / Papp(BL-AP): BL to AP; for Intestinal absorption / transport mechanism speculated from ER: comparison of Papp in two directions.

Assay in data set [2]: as above
Conditions: human, donor 10 μM, 3 h. The class given is in vitro ADME, human.

Setting [3] is: high QC conc. (SSs 100, SGF 1000, SGD 800, SGG 2200 nM).
[4] abbreviates: low QC conc. (SSs 1, SGF 10, SGD 8, SGG 22 nM).
[5] abbreviates: middle QC conc. (SSs 10, SGF 100, SGD 80, SGG 220 nM).

`C[C@H]1O[C@@H](O[C@H]2CC[C@@]3(C)[C@@H](CC[C@]4(C)[C@@H]3C=C[C@]35OC[C@@]6(CCC(C)(C)C[C@H]63)[C@H](O)C[C@]54C)[C@]2(C)CO)[C@H](O)[C@@H](O[C@@H]2O[C@H](CO)[C@@H](O)[C@H](O)[C@H]2O)[C@H]1O` [SSd]: in data set [1] (setting [3]), the “Stability, Autosampler (4 °C for 8 h), RE (%)” value (“Stability, Autosampler … (%)” below) is recorded as −0.92%; the “Stability, Bench-top (room temperature for 6 h), RE (%)” value (from here on “Stability, Bench-top … (%)”) is recorded as −8.09%; the “Stability, Freeze-thaw (three cycles at −80 °C), RE (%)” value (“Stability, Freeze-thaw … (%)” for short) came out at 12.04%; the “Stability, Processed samples (−80 °C for 8 h), RE (%)” value (shortened to “Stability, Processed samples … (%)”) is on record as −5.31%. For the same molecule, in data set [1] (setting [4]), the “Stability, Autosampler … (%)” value is reported as −5.69%; the “Stability, Bench-top … (%)” value was 0.83%; the “Stability, Freeze-thaw … (%)” value is listed as −1.11%; the “Stability, Processed samples … (%)” value was 1.51%. In data set [1] (setting [5]), the “Stability, Autosampler … (%)” value is −0.46%; the “Stability, Bench-top … (%)” value was 8.37%; the “Stability, Freeze-thaw … (%)” value is listed as 5.76%; the “Stability, Processed samples … (%)” value is given as −0.37%. Besides, in the data set on Caco-2 cell monolayer, the “Papp(AP-BL)” value was 0.312 ± 0.020 × 10^−6 cm/s, the “Recovery (%) BL-AP” value turned out to be 68.96%, the “Papp(BL-AP)” value is reported as 0.079 ± 0.012 × 10^−6 cm/s and the “Intestinal absorption / transport mechanism speculated from ER” value was “certain uptake transporters were probably involved”. Besides, in the data set on Caco-2 cell monolayer, the “ER (efflux ratio, Papp(BL-AP)/Papp(AP-BL))” value was determined as 0.25.
As to `C[C@H]1O[C@@H](O[C@H]2CC[C@@]3(C)[C@@H](CC[C@]4(C)[C@@H]3C=C[C@]35OC[C@@]6(CCC(C)(C)C[C@H]63)[C@@H](O)C[C@]54C)[C@]2(C)CO)[C@H](O)[C@@H](O[C@@H]2O[C@H](CO)[C@@H](O)[C@H](O)[C@H]2O)[C@H]1O` [SSa], in data set [1] (setting [3]), the “Stability, Autosampler … (%)” value is −1.88%; the “Stability, Bench-top … (%)” value came out at 0.62%; the “Stability, Freeze-thaw … (%)” value came to 1.36%; the “Stability, Processed samples … (%)” value is given as −1.50%. In addition, in data set [1] (setting [4]), the “Stability, Autosampler … (%)” value is −3.60%; the “Stability, Bench-top … (%)” value was −1.06%; the “Stability, Freeze-thaw … (%)” value is −7.46%; the “Stability, Processed samples … (%)” value was −10.40%. For the same molecule, in data set [1] (setting [5]), the “Stability, Autosampler … (%)” value was determined as 0.91%; the “Stability, Bench-top … (%)” value was found to be 2.00%; the “Stability, Freeze-thaw … (%)” value was 8.65%; the “Stability, Processed samples … (%)” value was determined as 2.87%. Also, in the data set with Caco-2 cell monolayer, the “Intestinal absorption / transport mechanism speculated from ER” value is “passive transport”. For the same molecule, in data set [2] (Caco-2, ER (efflux ratio, Papp(BL-AP)/Papp(AP-BL))), the efflux ratio at 3 h, 10 μM was found to be 1.15. The molecule also displayed a Papp A→B at 3 h, 10 μM in data set [2] (Caco-2, Papp(AP-BL), AP to BL, 37 °C, single time point, mean ± S.D. (n=3)) of 0.088 ± 0.014 ×10⁻⁶ cm/s. The molecule further registered a Papp B→A at 3 h, 10 μM in data set [2] (Caco-2, Papp(BL-AP), BL to AP, 37 °C, single time point, mean ± S.D. (n=3)) of 0.102 ± 0.031 ×10⁻⁶ cm/s. Also, the recovery at 3 h, 10 μM in data set [2] (Caco-2, Recovery (%) BL-AP, BL to AP, 37 °C) turned out to be 77.6%.
On to `C[C@H]1O[C@@H](O[C@H]2CC[C@@]3(C)[C@@H](CC[C@]4(C)[C@@H]3C=CC3=C5CC(C)(C)CC[C@]5(CO)[C@H](O)C[C@]34C)[C@]2(C)CO)[C@H](O)[C@@H](O[C@@H]2O[C@H](CO)[C@@H](O)[C@H](O)[C@H]2O)[C@H]1O` [SSb2], for which, in data set [1] (setting [3]), the “Stability, Autosampler … (%)” value is given as 5.11%; the “Stability, Bench-top … (%)” value was −0.27%; the “Stability, Freeze-thaw … (%)” value is given as 8.34%; the “Stability, Processed samples … (%)” value came out at 4.04%. In data set [1] (setting [4]), the “Stability, Autosampler … (%)” value is reported as 0.92%; the “Stability, Bench-top … (%)” value is 0.01%; the “Stability, Freeze-thaw … (%)” value was 2.62%; the “Stability, Processed samples … (%)” value is recorded as 3.52%. Also, in data set [1] (setting [5]), the “Stability, Autosampler … (%)” value was 0.35%; the “Stability, Bench-top … (%)” value was found to be 5.34%; the “Stability, Freeze-thaw … (%)” value is 3.06%; the “Stability, Processed samples … (%)” value came out at 6.93%. In the data set with Caco-2 cell monolayer, the “Papp(AP-BL)” value is 0.051 ± 0.010 × 10^−6 cm/s, the “Recovery (%) BL-AP” value is 68.12%, the “Papp(BL-AP)” value is recorded as 0.055 ± 0.011 × 10^−6 cm/s and the “Intestinal absorption / transport mechanism speculated from ER” value was “passive transport”. In addition, the “ER (efflux ratio, Papp(BL-AP)/Papp(AP-BL))” value in the data set with Caco-2 cell monolayer worked out at 1.09.
